Results from patent US8962633B2, “Methods of treatment and prevention of metabolic bone diseases and disorders” (Thomas Jefferson University, priority 2007, dated 2015).

What was measured:
[1] = Body weight and general observation of DM/HC pigs during the study; format: in vivo, pig
Description: (§1) Animal model: A diabetic/diabetic hypercholestrolemic pig model (DM/HC) was developed that mimics human-like atherosclerosis. Domestic Yorkshire boars weighing 25-30 kg and aged ˜4 months were castrated and made diabetic with a single intravenous injection of 125 mg/kg of streptozotocin (Sicor Pharmaceuticals, Irvine, Calif.). After stabilized for 1-2 weeks, the animals with elevated levels of plasma glucose (>150 mg/dl) were fed with atherogenic (high-fat) diet as shown in Table 1 (Animal Specialties, Quakertown, Pa.) to achieve a cholesterol level of approximately 250-800 mg/dl.
(§2) At one month after stabilization of choleresterol at 250-800 mg/dl, the animals were randomized into two experimental groups, DM/HC (hyperglycemia and hypercholesterolemia) group with no treatment and treatment group (10 mg/kg/day of SB-480848, also referred to as 1-(N-(2-(diethylamino)ethyl)-N-(4-(4-trifluoromethylphenyl)benzyl)-aminocarbonylmethyl)-2-(4-fluorobenzyl)thio-5,6-trimethylenepyrimidin-4-one). The animals were sacrificed at 6-month after the randomization. The animal protocol has been approved by the Institutional Animal Care and Use Committee of University of Pennsylvania.
(§3) Daily dosing began on Day 29, at which time each test animal was given a daily dose of 10 mg/kg SB-480848 (given as bolus equivalent in dog food). Animals were NPO from midnight the night before. […]

[2] = system: diabetic/hypercholesterolemic pig model (DM/HC); test: MicroCT analysis of trabecular bone (medial femoral condyle) in the DM/HC pig model; format: in vivo; conditions: for SMI (structural model index) / Tb.Th (trabecular thickness): 10 mg/kg/day
Description: Animal model: A diabetic/diabetic hypercholestrolemic pig model (DM/HC) was developed that mimics human-like atherosclerosis. Domestic Yorkshire boars weighing 25-30 kg and aged ˜4 months were castrated and made diabetic with a single intravenous injection of 125 mg/kg of streptozotocin (Sicor Pharmaceuticals, Irvine, Calif.). […] The animals were sacrificed at 6-month after the randomization. The animal protocol has been approved by the Institutional Animal Care and Use Committee of University of Pennsylvania. Daily dosing began on Day 29, at which time each test animal was given a daily dose of 10 mg/kg SB-480848 (given as bolus equivalent in dog food). Animals were NPO from midnight the night before. Animals were euthanized on Day 196 and tissues harvested immediately. Tissue sampling: The right knee joint was removed and dissected. The femoral bone was split in half in parallel to the long axis of the bone. A piece of bone including both the articular surface and growth plate region (˜15-20 mm) was sliced off from the front and parallel to the femoral shaft (FIG. 1). The tissues were fixed in 4% paraformaldehyde and scanned within one week in a μCT scanner (μCT-40, Scanco Corp.) with a voxel resolution of 20 μm. MicroCT Analysis—Micro CT analysis generates 3 dimensional data including bone density and indices of micro-architecture. From the central region, i.e., between the articular surface (top) and the growth plate (bottom), 250 slices (˜[…]) were analyzed. To avoid artifact, the measurements were contoured away from the regions directly below the articular surface and the cutting edges. Paraformaldehyde fixed tissues (2×2 cm) were analyzed using microCT 40 (Scanco Medical, Bassersdorf, Switzerland) and a 3D reconstruction of the images slices was generated. The tissues were scanned at a medium resolution with slice thickness and slice increments of 20 μm. […] Scanning was performed at an energy setting of 70000 (V) and an intensity of 114 (μA) with an integration time of 200 ms. All values for tissue volume (mm3), bone volume (mm3), bone volume/tissue volume, and mean/density (mg HA/ccm) were also calculated and recorded. […] The image density was measured with the Distance3D tool of the μCT Evaluation Program V5.0.

[3] = system: diabetic/hypercholesterolemic pig model (DM/HC); test: TUNEL assay of trabecular bone in DM/HC pigs; format: in vivo; conditions: treated vs non-treated DM/HC pigs, n=4 per group
Description: as §1, §2
Daily dosing began on Day 29, at which time each test animal was given a daily dose of 10 mg/kg SB-480848 (given as bolus equivalent in dog food). […]
TUNEL Assay. Apoptosis was measured by the TUNEL assay. […]

[4] = system: diabetic/hypercholesterolemic pig model (DM/HC); test: Histochemical staining (H&E-AB) of bone marrow in DM/HC pigs; format: in vivo; conditions: treated vs non-treated DM/HC pigs
Description: as §1, §2, §3

[5] = system: MLO-A5 osteoblastic cells; test: Alizarin Red staining (mineralization) of MLO-A5 cells; format: cell-based, mice; conditions: 5 μM LysoPC, 7 days, vs non-treated control cells
Description: (§4) Alkaline Phosphatase and Alizarin Red Staining. Alizarin Red and Alkaline Phosphatase Staining are bone marker proteins indicating the degree of mineralization and intensity of osteblast differentiation, respectively. MLO-A5 osteoblastic cells (isolated from 14-day-old osteocalcin promoter-driven T-antigen transgenic mice, J Bone Miner Res 12:2014-2023, 1997) were cultured on Collagen1 coated plates at density 15000 cells/well in 12-well TC plates. After 24 hours, the cells were treated w/10 mM β-GP and LysoPC at 5 μM concentration for 3 and 7 days. Treatment was repeated every other day. At each time point alizarin red and alkaline phosphatase staining was performed. Alkaline phosphatase Detection Kit (Chemicon, Intl., Temecula, Calif., SCR004) was used for detection and performed as per manufactures instructions. To visualize mineralization the cells were washed once with a 2% Alizarin Red S solution for 5-10 min. at room temperature followed by one wash with water, two washes with PBS and fixation with paraformaldehyde. The results were then imaged with a digital cooled CCD camera.

[6] = system: MLO-A5 osteoblastic cells; test: Alkaline phosphatase staining (osteoblast differentiation) of MLO-A5 cells; format: cell-based, mice; conditions: vs control
Description: as §4

MLO-A5 cells = test: CyQUANT cell proliferation assay in MLO-A5 cells; format: cell-based, mice; conditions: 5 μM LysoPC, 18 hours, vs non-treated cells
Description: Cell Proliferation. MLO-A5 cells were plated in 48-well TC dishes at a density of 5,000 cells/well and allowed to attach (5-6 hrs.). The cells were treated with 5 uM of Lyso PC for 18 hrs followed by analysis with the CyQUANT Cell Proliferation Assay Kit (Molecular Probes) following manufacturers instructions to measure MLO-A5 proliferation.

[7] = DM/HC pigs, 10 mg/kg/day SB-480848, sacrificed Day 196
[8] = DM/HC pigs, 10 mg/kg/day SB-480848, sacrificed Day 196, listed as Lp-PLA2 inhibitor

In the case of `CCN(CC)CCN(Cc1ccc(-c2ccc(C(F)(F)F)cc2)cc1)C(=O)Cn1c(SCc2ccc(F)cc2)nc(=O)c2c1CCC2` [SB480848, 1-(N-(2-(diethylamino)ethyl)-N-(4-(4-trifluoromethylphenyl)benzyl)-aminocarbonylmethyl)-2-(4-fluorobenzyl)thio-5,6-trimethylenepyrimidin-4-one], the weight ([1]; treated DM/HC pigs at end of study, baseline 26.9 kg, control animals 50.9 kg) is reported as 62.5 kg, the “responsiveness and activity of the animals” value ([1]; treated vs control DM/HC pigs, observation) is reported as “more responsive to external stimuli” and the “osteoporotic changes (BV/TV, BS/BV)” value ([2]; DM/HC pigs treated with inhibitor, in words) is reported as “no osteoporotic changes”. The “BS/BV (bone surface over bone volume)” value [2, 7] was 24.40 ± 0.51, the “BV/TV (bone volume over total volume)” value [2, 7] was 0.25 ± 0.01 and the “Conn-Dens (connectivity density)” value [2, 7] was 35.69 ± 1.22. For the same compound, the “Tb.N (trabecular number)” value [2, 7] was 2.78 ± 0.06, the “Tb.Sp (trabecular separation)” value [2, 7] was 0.33 ± 0.007 and the “SMI (structural model index)” value [2, 7] was 0.65 ± 0.10. The “Tb.Th (trabecular thickness)” value [2, 7] was 0.10 ± 0.002, the “SMI (structural model index)” value [2, 8] was “degenerative changes were minimized” and the “Tb.Th (trabecular thickness)” value [2, 8] was “reduced Tb.Th thickness was prevented”. For the same compound, the “changes in Tb.Sp, TbN and ConnD” value ([2]; control vs DM/HC vs treated DM/HC animals, in words) was “no significant changes”, the “death of osteocytes and osteoblasts (TUNEL positive cells)” value [3] was “reduced death of osteocytes and osteoblasts” and the “trabecular bone marrow morphology / homeostasis” value ([4]; H&E-AB staining, trabecular bone areas) was “preserved bone marrow homeostasis”. The “bone marrow remote from trabecular bone” value [4] was “prevented DM/HC-induced bone marrow abnormalities”.

For lyso-phosphatidylcholine [LysoPC], the “mineralization (Alizarin Red staining)” value [5] was “decreased mineralization”, the alkaline phosphatase staining ([6]; 5 μM LysoPC, 7 day treatment) was “decreased alkaline phosphatase staining” and the alkaline phosphatase staining ([6]; at least 5 μM LysoPC (5 and 20 μM), 7 days) was “reduced alkaline phosphatase staining”. For the same compound, the proliferation (MLO-A5 cells) was “reduced proliferation”.
